The text below walks through data of patent EP4656642A1, “ESTROGEN RECEPTOR PROTEOLYSIS TARGETING CHIMERA COMPOUND AND USE THEREOF” (GAN & LEE PHARM CO., LTD, priority 2023, dated 2024).

Holding throughout (assay type): cell-based
For one assay, the system named is MCF-7 cells. Nature of the assay: Inhibition of cell proliferation of MCF-7 cells (CCK-8, 9 days). The note with it: treated for 9 days, CCK-8 kit (Table 6). In outline:
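MCF-7 cells seeded at 800 cells/well in DMEM with 10% FBS, exposed to a range of compound concentrations for 9 days at 37°C, 5% CO2. Viability read by CCK-8; IC50 derived for proliferation inhibition.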

In assay [1] the target is T1, ERα (Homo sapiens, UniProt P03372).
T1 sequence (P03372 1-595): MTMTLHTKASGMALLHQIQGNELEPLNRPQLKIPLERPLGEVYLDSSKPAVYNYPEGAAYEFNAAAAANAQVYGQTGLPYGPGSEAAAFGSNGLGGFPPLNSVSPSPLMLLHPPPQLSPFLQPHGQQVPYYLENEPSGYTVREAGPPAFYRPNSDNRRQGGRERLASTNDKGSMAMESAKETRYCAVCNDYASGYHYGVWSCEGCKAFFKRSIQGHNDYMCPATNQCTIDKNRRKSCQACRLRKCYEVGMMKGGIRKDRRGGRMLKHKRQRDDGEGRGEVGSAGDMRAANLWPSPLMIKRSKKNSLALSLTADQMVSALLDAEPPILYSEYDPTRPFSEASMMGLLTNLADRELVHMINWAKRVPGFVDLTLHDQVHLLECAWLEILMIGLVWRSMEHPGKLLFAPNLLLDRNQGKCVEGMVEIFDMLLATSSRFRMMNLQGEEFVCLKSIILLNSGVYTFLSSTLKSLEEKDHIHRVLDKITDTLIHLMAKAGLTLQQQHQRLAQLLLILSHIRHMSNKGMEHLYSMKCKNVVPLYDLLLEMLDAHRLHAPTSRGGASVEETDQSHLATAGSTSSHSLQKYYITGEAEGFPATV
The assay can be described thus: Degradation of ERα in MCF-7 cells (immunoblotting, 4 h). In outline:
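MCF-7 cells treated 4 h at 37°C with compounds at 0.15-1000nM final. ERα in lysates measured by immunoblot, with band grayscale normalized to an internal reference protein. Degradation rate calculated against DMSO-treated control.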

The target of assay [2] is T1, ERα. The assay can be described thus: Degradation of ERα in T-47D cells (immunoblotting, 4 h). Further details: host or cells: T-47D. In outline: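 T-47D cells were treated with compound (final 0.15-1000 nM, DMSO) for 4 h at 37°C, 5% CO2. Cells were lysed in RIPA buffer with protease inhibitor, and ERα protein in the cleared lysate was measured by immunoblotting.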

Take `O=C1CCC(N2Cc3c(ccc4c3OCC43CCN(C4CC5(CCN(C6CCN(c7ccc([C@@H]8c9ccc(O)cc9CC[C@@H]8c8ccccc8)cc7)CC6)CC5)C4)CC3)C2=O)C(=O)N1` (some centres unmarked) [K4]: in the assay with MCF-7 cells, the IC50 is below 0.000256 µM. Besides, the “Degradation rate (%) of ERα in MCF-7 cells” value on ERα [1] (1nM compound) was determined as 48%; at ERα [1] (10nM compound) it was 53%. Further, the figures for the “Degradation rate (%) of ERα in T-47D cells” value at ERα [2] (1nM compound) and on ERα [2] (10nM compound) were 42% and 72%, respectively.
For `O=C1CCC(N2Cc3c(ccc4c3OCC43CCN(C(=O)CN4CCC5(CC4)CCN(c4ccc([C@@H]6c7ccc(O)cc7CC[C@@H]6c6ccccc6)cc4)C5)CC3)C2=O)C(=O)N1` (some centres unmarked) [A75], in that order: 0.00771 µM, 16%, 14%, 53% and 76%.
On to `O=C1CCC(N2C(=O)c3ccc4c(c3C2=O)OCC42CCN(C3CC4(C3)CN(c3ccc([C@@H]5c6ccc(O)cc6CC[C@@H]5c5ccccc5)cc3)C4)CC2)C(=O)N1` (some centres unmarked) [L19], for which the IC50 in the assay on MCF-7 cells came to 0.086 µM. In addition, the “Degradation rate (%) of ERα in MCF-7 cells” value at ERα [1] (1nM compound) is listed as 9%; at ERα [1] (10nM compound) it was 14%. The “Degradation rate (%) of ERα in T-47D cells” value is given as 12% at ERα [2] (1nM compound) and 9% at ERα [2] (10nM compound).
`O=C1CCC(N2Cc3c(ccc4c3OCC43CCN(C(=O)C45CCC(CN6CCN(c7ccc([C@@H]8c9ccc(O)cc9CC[C@@H]8c8ccccc8)cc7)CC6)(CC4)CC5)CC3)C2=O)C(=O)N1` (some centres unmarked) [G23] showed an IC50 in the assay with MCF-7 cells of 0.445 µM. Besides, the “Degradation rate (%) of ERα in MCF-7 cells” value on ERα [1] (1nM compound) turned out to be 1%; at ERα [1] (10nM compound) it was 43%. Moreover, the results for the “Degradation rate (%) of ERα in T-47D cells” value on ERα [2] (1nM compound) and at ERα [2] (10nM compound) were 28% and 62%, respectively.
For `CN(CC(=O)N1CCC2(CC1)COc1c2ccc2c1CN(C1CCC(=O)NC1=O)C2=O)C1CC2(CCN(c3ccc([C@@H]4c5ccc(O)cc5CC[C@@H]4c4ccccc4)cc3)CC2)C1` (some centres unmarked) [H48], in that order: 1.26 µM, 38%, 71%, 53% and 78%.
In the assay on MCF-7 cells, `O=C1CCC(N2Cc3cc4c(cc3C2=O)CCC2(CN(C3CCN(C(=O)c5ccc([C@@H]6c7ccc(O)cc7CC[C@@H]6c6ccccc6)cc5)CC3)C2)O4)C(=O)N1` (some centres unmarked) [H10] showed an IC50 of 9.28 µM. Further, the “Degradation rate (%) of ERα in MCF-7 cells” value is -28% on ERα [1] (1nM compound) and -4% on ERα [1] (10nM compound). Moreover, the “Degradation rate (%) of ERα in T-47D cells” value came to 0% on ERα [2] (1nM compound) and 36% at ERα [2] (10nM compound).
For the compound `CN(C)C(=O)[C@@H]1CC(N2CCC3(CC2)COc2c3ccc3c2CN(C2CCC(=O)NC2=O)C3=O)CCN1C(=O)C1CCN(c2ccc([C@@H]3c4ccc(O)cc4CC[C@@H]3c3ccccc3)cc2)CC1` (some centres unmarked) [K29], half-maximal inhibition in the assay with MCF-7 cells (IC50) was put at 0.0195 µM. Further, the “Degradation rate (%) of ERα in MCF-7 cells” value at ERα [1] (1nM compound) is recorded as 43%; on ERα [1] (10nM compound), 66%. Besides, the “Degradation rate (%) of ERα in T-47D cells” value at ERα [2] (1nM compound) was 46%; on ERα [2] (10nM compound) it was 79%.
In the same order, the values of `CN(CC(=O)N1CCC2(CC1)COc1c2ccc2c1CN(C1CCC(=O)NC1=O)C2=O)CC1CCN(c2ccc([C@@H]3c4ccc(O)cc4CC[C@@H]3c3ccccc3)cc2)CC1` (some centres unmarked) [J10] are 0.00612 µM, 50%, 73%, 70% and 88%.
In the same order, the values of `O=C1CCC(N2Cc3c(ccc4c3OCC43CCN(C4CCN(C(=O)C5CCN(c6ccc(C7c8ccc(O)cc8CCC7c7ccccc7)cc6)CC5)CC4F)CC3)C2=O)C(=O)N1` (centres unmarked) [G12] are 0.00927 µM, 24%, 57%, 47% and 81%.
For `C[C@@H]1Cc2cc(O)ccc2C(c2c(F)cc(N3CCC4(CCN(CC(=O)N5CCC6(CC5)COc5c6ccc6c5CN(C5CCC(=O)NC5=O)C6=O)C4)CC3)cc2F)N1CC(F)F` (some centres unmarked) [F8], in that order: 0.203 µM, 63%, 63%, 61% and 68%.
`O=C1CCC(N2Cc3cc4c(cc3C2=O)OC2(CC4)CN(C3CCC4(CC3)CCN(C3CCN(c5ccc([C@@H]6c7ccc(O)cc7CC[C@@H]6c6ccccc6)cc5)CC3)CC4)C2)C(=O)N1` (some centres unmarked) [K14]: the IC50 in the assay with MCF-7 cells came out at 0.22 µM. Also, the figures for the “Degradation rate (%) of ERα in MCF-7 cells” value at ERα [1] (1nM compound) and at ERα [1] (10nM compound) were -3% and 14%, respectively. Besides, the results for the “Degradation rate (%) of ERα in T-47D cells” value at ERα [2] (1nM compound) and on ERα [2] (10nM compound) were 20% and 67%, respectively.
In the case of `O=C1CCC(N2Cc3c(ccc4c3OCC43CCN(C(=O)CN4CCC5(CC4)CCN(c4ccc([C@@H]6c7ccc(O)cc7CC[C@@H]6c6ccccc6)cc4)CC5)CC3)C2=O)C(=O)N1` (some centres unmarked) [A62], the midpoint of inhibition in the assay on MCF-7 cells, the IC50, lay at 0.0152 µM. The “Degradation rate (%) of ERα in MCF-7 cells” value on ERα [1] (1nM compound) turned out to be 52%; at ERα [1] (10nM compound), 82%. The entries for the “Degradation rate (%) of ERα in T-47D cells” value at ERα [2] (1nM compound) and on ERα [2] (10nM compound) were 73% and 89%, respectively.
For `O=C1CCC(N2Cc3c(ccc4c3OCC43CCN(C4CC5CC4CN5C(=O)C4CCN(c5ccc([C@@H]6c7ccc(O)cc7CC[C@@H]6c6ccccc6)cc5)CC4)CC3)C2=O)C(=O)N1` (some centres unmarked) [D2], in that order: 3.62 µM, 31%, 29%, 61% and 68%.
`O=C1CCC(N2Cc3c(ccc4c3OC3(CC4)CCN(C4CCC5(CC4)CCN(c4ccc([C@@H]6c7ccc(O)cc7CC[C@@H]6c6ccccc6)cc4)CC5)CC3)C2=O)C(=O)N1` (some centres unmarked) [L20] came in with an IC50 in the assay on MCF-7 cells of 2.19 µM. Also, the “Degradation rate (%) of ERα in MCF-7 cells” value was -12% on ERα [1] (1nM compound) and 6% at ERα [1] (10nM compound). Besides, the “Degradation rate (%) of ERα in T-47D cells” value is given as 28% at ERα [2] (1nM compound) and 41% at ERα [2] (10nM compound).
In the same order, the values of `O=C1CCC(N2Cc3c(ccc4c3OCC43CCN(C(=O)CN4CCC5(CCN(c6ccc([C@@H]7c8ccc(O)cc8CC[C@@H]7c7ccccc7)cc6)CC5)C4)CC3)C2=O)C(=O)N1` (some centres unmarked) [A63] are 0.00324 µM, 69%, 68%, 67% and 80%.
In the same order, the values of `O=C1CCC(N2Cc3cc4c(cc3C2=O)OC2(CC4)CN(C3CC4(CCC5(CC4)CN(c4ccc([C@@H]6c7ccc(O)cc7CC[C@@H]6c6ccccc6)cc4)C5)C3)C2)C(=O)N1` (some centres unmarked) [H26] are 1.26 µM, -9%, -11%, 1% and 2%.
In the same order, the values of `C[C@@H]1Cc2c([nH]c3ccccc23)[C@@H](c2c(F)cc(N3CCC4(CCN(C(=O)CN5CCC6(CC5)COc5c6ccc6c5CN(C5CCC(=O)NC5=O)C6=O)C4)CC3)cc2F)N1CC(F)F` (some centres unmarked) [A119] are 0.0194 µM, 12%, 66%, 51% and 73%.
Consider `O=C1CCC(N2Cc3c(ccc4c3OCC43CCN(C(=O)CN4CCC5(CCN(c6ccc([C@@H]7c8ccc(O)cc8CC[C@@H]7c7ccccc7)cc6)C5)C4)CC3)C2=O)C(=O)N1` (some centres unmarked) [H13], for which, in the assay with MCF-7 cells, the IC50 was found to be 0.00324 µM. In addition, the “Degradation rate (%) of ERα in MCF-7 cells” value was 39% at ERα [1] (1nM compound) and 62% at ERα [1] (10nM compound). In addition, the “Degradation rate (%) of ERα in T-47D cells” value on ERα [2] (1nM compound) was 48%; on ERα [2] (10nM compound), 71%.
In the same order, the values of `O=C1CCC(N2Cc3cc4c(cc3C2=O)OC2(CC4)CN(C(=O)CN3CCC4(CCN(c5ccc([C@@H]6c7ccc(O)cc7CC[C@@H]6c6ccccc6)cc5)CC4)C3)C2)C(=O)N1` (some centres unmarked) [A77] are 52.1 µM, 29%, 61%, 54% and 78%.
